Test results from patent publication US11572341B2, “Biguanide compound and use thereof” (ImmunoMet Therapeutics Inc., priority 2014, dated 2023).
Counter-ions that a name gives are not always drawn.

What was measured:
[1] = test system: AMPKa [pT172]; test: AMPKa activation [pT172] in MCF7 cell; type: cell-based
[2] = test system: HCT116 cells; test: Inhibitory effect against cancer cell proliferation (MTT); type: cell-based, human; settings: Homo sapiens, HCT-116; HCT116, MTT, 48 hours; read-out: IC50 (uM) @ HCT116
Protocol: The formazane crystals thus formed were dissolved using dimethyl sulfoxide (DMSO) and absorbance of the solution was measured at 560 nm. After culturing for 48 hours, […] synthesized in Examples was indicated as cell viability (%) according to each treated concentration.

Compound | IC50 [2] | AMPKa activation [pT172] (Unit/ml) @ MCF7 cell ([1]; 5 uM) | AMPKa activation [pT172] (Unit/ml) @ MCF7 cell ([1]; 10 uM) | AMPKa activation [pT172] (Unit/ml) @ MCF7 cell ([1]; 50 uM)
CN1CCN(C(=N)NC(=N)Nc2ccc(F)cc2)CC1.Cl [Example 33, N1-(4-methyl)piperazin-N5-(4-fluoro)phenyl Biguanide Hydrochloride] | > 100 µM | 3.8 Unit/ml | 3.3 Unit/ml | 4.3 Unit/ml
CN1CCN(C(=N)NC(=N)Nc2ccccc2F)CC1.Cl [Example 34, N1-(4-methyl)piperazin-N5-(2-fluoro)phenyl Biguanide Hydrochloride] | > 100 µM | 4.5 Unit/ml | 3.7 Unit/ml | 7.0 Unit/ml
CCCCNC(=N)NC(=N)N1CCN(C)CC1.Cl [Example 36, N1-(4-methy)piperazin-N5-butyl Biguanide Hydrochloride] | > 100 µM | 5.5 Unit/ml | 5.8 Unit/ml | 4.8 Unit/ml
CN1CCN(C(=N)NC(=N)Nc2cc(F)cc(F)c2)CC1.Cl [Example 39, N1-(4-methyl)piperazin-N5-(3,5-difluoro)phenyl Biguanide Hydrochloride] | > 100 µM | 6.2 Unit/ml | 7.1 Unit/ml | 8.2 Unit/ml
CN1CCN(C(=N)NC(=N)Nc2cc(F)c(F)c(F)c2)CC1.Cl [Example 40, N1-(4-methyl)piperazin-N5-(3,4,5-trifluoro)phenyl Biguanide Hydrochloride] | > 100 µM | 7.0 Unit/ml | 5.1 Unit/ml | 7.2 Unit/ml
Cl.N=C(NC(=N)Nc1cccc(C(F)(F)F)c1)Nc1cccnc1 [Example 41, N1-3-pyridin-N5-(3-trifluoromethyl)phenyl Biguanide Hydrochloride] | > 100 µM | 8.3 Unit/ml | 10.2 Unit/ml | 14.4 Unit/ml
Cl.N=C(NCc1cccc(C(F)(F)F)c1)NC(=N)Nc1cccnc1 [Example 43, N1-3-pyridin-N5-(3-trifluoromethyl)benzyl Biguanide Hydrochloride] | 100 µM | 3.0 Unit/ml | 4.3 Unit/ml | 7.6 Unit/ml
CC1CCCN(C(=N)NC(=N)NC2CCCC2)C1.Cl (centres unmarked) [Example 44, N1-(3-methyl)piperidin-N5-cyclopentyl Biguanide Hydrochloride] | > 100 µM | 4.5 Unit/ml | 5.2 Unit/ml | 14.8 Unit/ml
COC1CCN(C(=N)NC(=N)N2CCCC(C)C2)CC1.Cl (centres unmarked) [Example 45, N1-(3-methyl)piperidin-N5-(4-methoxy)piperidine Biguanide Hydrochloride] | > 100 µM | 3.0 Unit/ml | 4.0 Unit/ml | 3.5 Unit/ml
CCOC1CCN(C(=N)NC(=N)N2CCCC(C)C2)CC1 (centres unmarked) [Example 46, N1-(3-methyl)piperidin-N5-(4-ethos)piperidine Biguanide Hydrochloride] | > 100 µM | 3.8 Unit/ml | 3.6 Unit/ml | 5.4 Unit/ml
CC1CCCN(C(=N)NC(=N)Nc2cnccn2)C1.Cl (centres unmarked) [Example 47, N1-(3-methyl)piperidin-N5-pyrazin-2-yl Biguanide Hydrochloride] | 130 µM | 2.8 Unit/ml | 3.8 Unit/ml | 5.3 Unit/ml

Stronger by IC50 [2], values ahead:

IC50 [2] | Compound | AMPKa activation [pT172] (Unit/ml) @ MCF7 cell ([1]; 5 uM) | AMPKa activation [pT172] (Unit/ml) @ MCF7 cell ([1]; 10 uM) | AMPKa activation [pT172] (Unit/ml) @ MCF7 cell ([1]; 50 uM)
32.8 µM | CN1CCN(C(=N)NC(=N)Nc2ccc(Cl)c(Cl)c2)CC1.Cl [Example 37, N1-(4-methyl)piperazin-N5-(3,4-dichloro)phenyl Biguanide Hydrochloride] | 5.8 Unit/ml | 7.5 Unit/ml | 15.0 Unit/ml
8.6 µM | CC1CCN(C(=N)NC(=N)Nc2ccc(Br)cc2)CC1.Cl [Example 48, N1-(4-methyl)piperidin-N5-(4-bromo)phenyl Biguanide Hydrochloride] | 4.3 Unit/ml | 6.8 Unit/ml | cell death
5.1 µM | CC1CCN(C(=N)NC(=N)Nc2cccc(OC(F)(F)F)c2)CC1.Cl [Example 49, N1-(4-methy)piperidin-N5-(3-trifluoromethoxy)phenyl Biguanide Hydrochloride] | 9.3 Unit/ml | 13.7 Unit/ml | cell death
6.7 µM | CC1CCN(C(=N)NC(=N)Nc2cccc(C(F)(F)F)c2)CC1.Cl [Example 50, N1-(4-methyl)piperidin-N5-(3-trifluoromethyl)phenyl Biguanide Hydrochloride] | 8.3 Unit/ml | 11.5 Unit/ml | cell death
6.6 µM | CC1CCCN(C(=N)NC(=N)Nc2cccc(C(F)(F)F)c2)C1.Cl (centres unmarked) [Example 51, N1-(3-methyl)piperidin-N5-(3-trifluoromethyl)phenyl Biguanide Hydrochloride] | 12.5 Unit/ml | 15.2 Unit/ml | cell death
6.8 µM | CC1CCN(C(=N)NC(=N)Nc2ccc(OC(F)(F)F)cc2)CC1.Cl [Example 52, N1-(4-methyl)piperidin-N5-(4-trifluoromethoxy)phenyl Biguanide Hydrochloride] | 9.4 Unit/ml | 15.0 Unit/ml | cell death
6.1 µM | CC1CCN(C(=N)NC(=N)Nc2ccc(C(F)(F)F)cc2)CC1.Cl [Example 53, N1-(4-methyl)piperidin-N5-(4-trifluoromethyl)phenyl Biguanide Hydrochloride] | 9.2 Unit/ml | 13.9 Unit/ml | cell death
6.7 µM | CC1CCN(C(=N)NC(=N)Nc2ccc(F)c(C(F)(F)F)c2)CC1.Cl [Example 54, N1-(4-methyl)piperidin-N5-(3-trifluoromethyl-4-fluoro)phenyl Biguanide Hydrochloride] | 4.9 Unit/ml | 8.9 Unit/ml | cell death
48.8 µM | CC1CCN(C(=N)NC(=N)Nc2ccc(F)cc2)CC1.Cl [Example 56, N1-(4-methyl)piperidin-N5-(4-fluoro)phenyl Biguanide Hydrochloride] | 2.7 Unit/ml | 4.8 Unit/ml | 15.4 Unit/ml
